Laboratory results taken from patent US20260250318A1, “COMPOSITIONS AND METHODS FOR CROSSING THE BLOOD BRAIN BARRIER” (VOYAGER THERAPEUTICS, INC., priority 2022, published 2026).

Tests used:
Details in all cases: synthetic library passage 3, intravenous, relative to wild-type AAV9
[1] = test system: brain, spinal cord, and DRG of the NHPs; assay: NGS fold enrichment of synthetic library (passage 3) in NHPs, first cross-species screen; assay type: in vivo, cynomolgus macaques (Macaca fascicularis)
Outline: (§1)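 Synthetic capsid library (passage 3) was given intravenously […] to NHPs aged 2-4 years and to BALB/c and C57Bl/6 mice (n=3 each, 6-8 weeks). After about 28 days in vivo, tissue RNA was RT-PCR amplified and NGS-sequenced; values are fold enrichment per variant relative to wild-type AAV9.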

[2] = test system: brain; assay: NGS fold enrichment of synthetic library (passage 3) in BALB/c mice, first cross-species screen; assay type: in vivo
Outline: as §1

[3] = test system: brain; assay: NGS fold enrichment of synthetic library (passage 3) in C57Bl/6 mice, first cross-species screen; assay type: in vivo
Outline: as §1

[4] = RNA from spinal cord of NHPs, NGS
[5] = RNA from brain of BALB/c mice, NGS
[6] = RNA from brain of C57Bl/6 mice, NGS

Row | Sequence | Fold enrichment over AAV9 in the brain of NHPs ([1]; RNA NGS, brain of NHPs) | Fold enrichment over AAV9 in the spinal cord of NHPs ([1]; RNA NGS, spinal cord of NHPs) | Fold enrichment over AAV9 in the brain of Mice (BALB/c) ([2]; RNA NGS, brain of BALB/c mice) | Fold enrichment over AAV9 in the brain of Mice (C57Bl/6) ([3]; RNA NGS, brain of C57Bl/6 mice) | Fold enrichment over AAV9 in the brain of NHPs ([1]; RNA from brain of NHPs, NGS) | Fold enrichment over AAV9 in the spinal cord of NHPs [1, 4] | Fold enrichment over AAV9 in the brain of Mice (BALB/c) [2, 5] | Fold enrichment over AAV9 in the brain of Mice (C57Bl/6) [3, 6]
1 | GSSHRFYGGQNQQT | 4.732 fold | 0.000 fold | 0.110 fold | 0.787 fold |  |  |  | 
2 | GSSHTLALGQNKQT |  |  |  |  | 1.362 fold | 2.160 fold | 0.643 fold | 0.838 fold
3 | GSSHTLALGQNQQT | 1.441 fold | 7.071 fold | 0.406 fold | 0.851 fold |  |  |  | 
4 | GSSHTQALGQNQQT | 1.784 fold | 0.143 fold | 0.874 fold | 0.882 fold |  |  |  | 
5 | GSSKELLWGQNQQT | 2.163 fold | 0.000 fold | 0.883 fold | 0.506 fold |  |  |  | 
6 | GSSPAPNSGQNQQT | 1.106 fold | 2.229 fold | 0.368 fold | 0.719 fold |  |  |  | 
7 | GSSQNQQHDMRLRT |  |  |  |  | 1.386 fold | 2.645 fold | 0.552 fold | 0.669 fold
8 | GSSQSTGYQPNQQT | 1.847 fold | 3.388 fold | 0.577 fold | 0.522 fold |  |  |  | 
9 | GSSREFHSGQNQQT |  |  |  |  | 1.203 fold | 1.591 fold | 0.474 fold | 0.688 fold
10 | GSSRVPVSGQNQQT |  |  |  |  | 1.385 fold | 13.191 fold | 0.485 fold | 0.870 fold
11 | GSSSPGASGQNQQT | 1.717 fold | 1.244 fold | 0.660 fold | 1.378 fold |  |  |  | 
12 | GSSTLVTIGKNQQT | 1.592 fold | 4.316 fold | 0.819 fold | 0.917 fold |  |  |  | 
13 | GSSTRVDSGQNQQT | 1.584 fold | 2.774 fold | 0.660 fold | 0.704 fold |  |  |  | 
14 | GSSTTIVSGQNHQT | 1.411 fold | 0.000 fold | 0.672 fold | 0.993 fold |  |  |  | 
15 | GSSVGSPIGQNQQT | 1.584 fold | 3.574 fold | 0.706 fold | 1.059 fold |  |  |  | 
16 | GSSVGVPSGQNQQT |  |  |  |  | 1.322 fold | 4.867 fold | 1.157 fold | 0.336 fold
17 | GSSVNSMIGQNQQT |  |  |  |  | 1.239 fold | 0.000 fold | 0.580 fold | 0.976 fold
18 | GSSVRSLVGQNQQT | 1.004 fold | 3.840 fold | 0.608 fold | 0.412 fold |  |  |  | 
19 | GSSVRYEPKQNQQT | 1.063 fold | 1.564 fold | 0.501 fold | 0.450 fold |  |  |  | 
20 | GSSVSPSSGQNQQT | 2.054 fold | 0.579 fold | 0.787 fold | 1.064 fold |  |  |  | 

Row | Sequence | Fold enrichment over AAV9 in the brain of NHPs ([1]; RNA NGS, brain of NHPs) | Fold enrichment over AAV9 in the spinal cord of NHPs ([1]; RNA NGS, spinal cord of NHPs) | Fold enrichment over AAV9 in the brain of Mice (BALB/c) ([2]; RNA NGS, brain of BALB/c mice) | Fold enrichment over AAV9 in the brain of Mice (C57Bl/6) ([3]; RNA NGS, brain of C57Bl/6 mice) | Fold enrichment over AAV9 in the brain of NHPs ([1]; RNA from brain of NHPs, NGS) | Fold enrichment over AAV9 in the spinal cord of NHPs [1, 4] | Fold enrichment over AAV9 in the brain of Mice (BALB/c) [2, 5] | Fold enrichment over AAV9 in the brain of Mice (C57Bl/6) [3, 6]
21 | GSTGIVSSGQNQQT | 1.570 fold | 0.927 fold | 1.046 fold | 2.141 fold |  |  |  | 
22 | GSTGSHSAGQNQHT | 3.717 fold | 0.285 fold | 0.850 fold | 1.190 fold |  |  |  | 
23 | GSTPAGVGGQNQQT | 1.663 fold | 2.733 fold | 0.477 fold | 0.593 fold |  |  |  | 
24 | GSTVQDTRGQNQQT | 2.270 fold | 4.979 fold | 0.473 fold | 0.576 fold |  |  |  | 
25 | GSVFGVPSGQNQQT | 1.474 fold | 1.248 fold | 0.213 fold | 0.685 fold |  |  |  | 
26 | GSVGSRPVGQNQQT | 1.442 fold | 11.363 fold | 0.716 fold | 1.182 fold |  |  |  | 
27 | GSVHLSVTGQNQQT | 2.882 fold | 1.157 fold | 0.282 fold | 0.741 fold |  |  |  | 
28 | GSVHMQNAGQNQQT | 1.034 fold | 3.608 fold | 0.625 fold | 1.004 fold |  |  |  | 
29 | GSVLHSHAAQNQQT | 4.150 fold | 6.448 fold | 0.423 fold | 0.675 fold |  |  |  | 
30 | GSVSDVRAGQNQQT | 2.661 fold | 1.647 fold | 0.747 fold | 0.267 fold |  |  |  | 
31 | GSVSTHSSGQNQQT | 2.145 fold | 3.446 fold | 0.918 fold | 1.198 fold |  |  |  | 
32 | GSVTHGISGQNQQT | 2.105 fold | 4.542 fold | 0.789 fold | 1.135 fold |  |  |  | 
33 | GSYGMAASGQNQQT | 3.817 fold | 10.052 fold | 0.829 fold | 1.274 fold |  |  |  | 
34 | GTASTYNSGQNQQT | 1.099 fold | 2.560 fold | 0.625 fold | 0.250 fold |  |  |  | 
35 | GTDFGRQSSQNQQT | 2.346 fold | 3.196 fold | 0.797 fold | 1.021 fold |  |  |  | 
36 | GTEQTRQSGQNQQT |  |  |  |  | 1.188 fold | 0.132 fold | 0.756 fold | 0.756 fold
37 | GTHPYTSSGQNQQT | 2.775 fold | 1.684 fold | 0.471 fold | 0.758 fold |  |  |  | 
38 | GTPTSPSSGQNQQT | 1.086 fold | 4.558 fold | 0.662 fold | 0.833 fold |  |  |  | 
39 | GTREMPLSGQNQQT | 2.339 fold | 2.830 fold | 0.538 fold | 1.436 fold |  |  |  | 
40 | GTTAHQPSGQNQQT |  |  |  |  | 1.138 fold | 0.211 fold | 0.275 fold | 0.726 fold
